In patent US9199979B2, “Thiazolylphenyl-benzenesulfonamido derivatives as kinase inhibitors” (NERVIANO MEDICAL SCIENCES S.R.L., priority 2011, dated 2015):

What was measured:
Format in all cases: cell-based
[1] = tested on: human melanoma cells Mewo (with wild-type B-Raf); experiment: In vitro cell proliferation assay, Mewo; settings: 72 h treatment, cellular ATP readout
Experimental: (§1) Exponentially growing human melanoma cells A375 (with a mutated B-Raf) and human melanoma cells Mewo (with wild-type B-Raf) were seeded and incubated at 37° C. in a humidified 5% CO2 atmosphere. After 24 h, scalar doses of the compound were added to the medium and cells incubated for 72 h. At the end of treatment, cells were washed and counted. Cell number was determined by a cellular adenosine triphosphate monitoring system. Cell proliferation was compared to control cells and the concentration inhibiting cell growth by 50% was calculated.

[2] = tested on: human melanoma cells A375 (with a mutated B-Raf); experiment: In vitro cell proliferation assay, A375; settings: A-375, 72 h treatment, cellular ATP readout
Experimental: as §1

[3] = tested on: p-MAPK (T202/Y204) in A375 human melanoma cells, having a mutated B-Raf; experiment: p-MAPK (T202/Y204) ArrayScan assay; settings: A-375, 1.5 or 2 h treatment, p-MAPK staining, read-out: Array Scan A375 IC50
Experimental: A375 human melanoma cells, having a mutated B-Raf, were seeded in 384-well poly-lysine coated plates (Matrix) at a density of 1000 cells/well with appropriate medium supplemented with 10% FCS and incubated for 16-24 h. Cells were treated for 1.5 or 2 h with increasing doses of compounds (starting dose 10 μM, dilution factor 2.5). At the end of the treatment cells were fixed with p-formaldehyde 3.7% for 15-30 min, then washed twice with D-PBS (80 μL/well) and permeabilized with D-PBS containing 0.1% Triton X-100 and 1% BSA (Sigma-Aldrich) for 15 min at room temperature (staining solution). Anti-phospho-MAPK (T202/Y204) monoclonal antibody E10 (Cell Signaling, cat. #9106) diluted 1:100 was added in staining solution and incubated for 1 h at 37° C. After removal of the primary antibody solution, the anti-mouse Cy™ 2-conjugated (Green) secondary antibody (Amersham) diluted 1:500 in staining solution containing 2 μg/mL DAPI was added. The plate was incubated for 1 h at 37° C., washed twice and then read with Cellomics' ArrayScan VTI (4 fields/well, CytoNucTrans algorithm).
The parameter “MEAN_RingAvgIntenCh2”, which measures the mean cytoplasmatic fluorescence intensity associated to p-MAPK staining, is reported as the final result.

Row | Compound | IC50 [1] | IC50 [2] | IC50 [3]
1 | CCN(CC)c1nc(-c2c(F)ccc(NS(=O)(=O)c3cc(F)ccc3F)c2F)c(-c2ccncc2)s1 [cmpd. 3, N-{3-[2-(diethylamino)-5-(pyridin-4-yl)-1,3-thiazol-4-yl]-2,4-difluorophenyl}-2,5-difluorobenzenesulfonamide] | > 10000 nM | 166 nM | 1 nM
2 | CC(=O)Nc1cc(-c2sc(C3CCN(C4CC4)CC3)nc2-c2cccc(NS(=O)(=O)c3cc(F)ccc3F)c2F)ccn1 [cmpd. 30, N-{4-[2-(1-cyclopropylpiperidin-4-yl)-4-(3-{[(2,5-difluorophenyl)sulfonyl]amino}-2-fluorophenyl)-1,3-thiazol-5-yl]pyridin-2-yl}acetamide] | > 10000 nM | 3 nM | –
3 | CN1CCC(c2nc(-c3cccc(NS(=O)(=O)c4cc(F)ccc4F)c3F)c(-c3ccncc3)s2)CC1 [cmpd. 19, 2,5-difluoro-N-{2-fluoro-3-[2-(1-methylpiperidin-4-yl)-5-(pyridin-4-yl)-1,3-thiazol-4-yl]phenyl}benzenesulfonamide] | > 10000 nM | 40 nM | 2 nM
4 | CNc1cc(-c2sc(C3CCOCC3)nc2-c2cccc(NS(=O)(=O)c3cc(F)ccc3F)c2F)ccn1 [cmpd. 25, 2,5-difluoro-N-(2-fluoro-3-{5-[2-(methylamino)pyridin-4-yl]-2-(tetrahydro-2H-pyran-4-yl)-1,3-thiazol-4-yl}phenyl)benzenesulfonamide] | > 10000 nM | 32 nM | –
5 | O=S(=O)(Nc1cccc(-c2nc(N3CCC(F)(F)CC3)sc2-c2ccncc2)c1F)c1cc(F)ccc1F [cmpd. 18, N-{3-[2-(4,4-difluoropiperidin-1-yl)-5-(pyridin-4-yl)-1,3-thiazol-4-yl]-2-fluorophenyl}-2,5-difluorobenzenesulfonamide] | > 10000 nM | 127 nM | 2 nM
6 | CN1CCC(c2nc(-c3cccc(NS(=O)(=O)c4cc(F)ccc4F)c3F)c(-c3ccnc(N)c3)s2)CC1 [cmpd. 39, N-{3-[5-(2-aminopyridin-4-yl)-2-(1-methylpiperidin-4-yl)-1,3-thiazol-4-yl]-2-fluorophenyl}-2,5-difluorobenzenesulfonamide] | > 10000 nM | 27 nM | –
7 | CNc1cc(-c2sc(C3CCN(C)CC3)nc2-c2cccc(NS(=O)(=O)c3cc(F)ccc3F)c2F)ccn1 [cmpd. 38, 2,5-difluoro-N-(2-fluoro-3-{5-[2-(methylamino)pyridin-4-yl]-2-(1-methylpiperidin-4-yl)-1,3-thiazol-4-yl}phenyl)benzenesulfonamide] | > 10000 nM | 47 nM | –
8 | O=S(=O)(Nc1cccc(-c2nc(C3CCN(C4CC4)CC3)sc2-c2ccncc2)c1F)c1cc(F)ccc1F [cmpd. 21, N-{3-[2-(1-cyclopropylpiperidin-4-yl)-5-(pyridin-4-yl)-1,3-thiazol-4-yl]-2-fluorophenyl}-2,5-difluorobenzenesulfonamide] | > 10000 nM | 23 nM | –
9 | O=S(=O)(Nc1ccc(F)c(-c2nc(N3CCC(F)(F)CC3)sc2-c2ccncc2)c1F)c1cc(F)ccc1F [cmpd. 14, N-{3-[2-(4,4-difluoropiperidin-1-yl)-5-(pyridin-4-yl)-1,3-thiazol-4-yl]-2,4-difluorophenyl}-2,5-difluorobenzenesulfonamide] | > 10000 nM | 66 nM | 4 nM
10 | CNc1cc(-c2sc(C3CCN(C4CC4)CC3)nc2-c2cccc(NS(=O)(=O)c3cc(F)ccc3F)c2F)ccn1 [cmpd. 37, N-(3-{2-(1-cyclopropylpiperidin-4-yl)-5-[2-(methylamino)pyridin-4-yl]-1,3-thiazol-4-yl}-2-fluorophenyl)-2,5-difluorobenzenesulfonamide] | > 10000 nM | 92 nM | –
11 | CC(=O)Nc1cc(-c2sc(C(C)(C)C)nc2-c2cccc(NS(=O)(=O)c3cc(F)ccc3F)c2F)ccn1 [cmpd. 42, N-{4-[2-tert-butyl-4-(3-{[(2,5-difluorophenyl)sulfonyl]amino}-2-fluorophenyl)-1,3-thiazol-5-yl]pyridin-2-yl}acetamide] | > 10000 nM | 0.6 nM | –

The next lines start with the values.

Row | IC50 [1] | IC50 [2] | IC50 [3] | Compound
12 | > 10000 nM | 8 nM | – | COC(=O)N[C@@H](C)CNc1cc(-c2sc(C3CCOCC3)nc2-c2cccc(NS(=O)(=O)c3cc(F)ccc3F)c2F)ccn1 [cmpd. 41, Methyl [(2S)-1-({4-[4-(3-{[(2,5-difluorophenyl)sulfonyl]amino}-2-fluorophenyl)-2-(tetrahydro-2H-pyran-4-yl)-1,3-thiazol-5-yl]pyridin-2-yl}amino)propan-2-yl]carbamate]
13 | > 10000 nM | 15 nM | – | Nc1cc(-c2sc(C3CCOCC3)nc2-c2cccc(NS(=O)(=O)c3cc(F)ccc3F)c2F)ccn1 [cmpd. 24, N-{3-[5-(2-aminopyridin-4-yl)-2-(tetrahydro-2H-pyran-4-yl)-1,3-thiazol-4-yl]-2-fluorophenyl}-2,5-difluorobenzenesulfonamide]
14 | > 10000 nM | 69 nM | – | CC(=O)NCCNc1cc(-c2sc(C3CCOCC3)nc2-c2cccc(NS(=O)(=O)c3cc(F)ccc3F)c2F)ccn1 [cmpd. 36, N-[2-({4-[4-(3-{[(2,5-difluorophenyl)sulfonyl]amino}-2-fluorophenyl)-2-(tetrahydro-2H-pyran-4-yl)-1,3-thiazol-5-yl]pyridin-2-yl}amino)ethyl]acetamide]
15 | > 10000 nM | 78 nM | 2 nM | O=S(=O)(Nc1cccc(-c2nc(C3CCOCC3)sc2-c2ccncc2)c1F)c1cc(F)ccc1F [cmpd. 20, 2,5-difluoro-N-{2-fluoro-3-[5-(pyridin-4-yl)-2-(tetrahydro-2H-pyran-4-yl)-1,3-thiazol-4-yl]phenyl}benzenesulfonamide]
16 | > 10000 nM | 12 nM | – | CC(C)(C)c1nc(-c2cccc(NS(=O)(=O)c3cc(F)ccc3F)c2F)c(-c2ccncc2)s1 [cmpd. 43, N-{3-[2-tert-butyl-5-(pyridin-4-yl)-1,3-thiazol-4-yl]-2-fluorophenyl}-2,5-difluorobenzenesulfonamide]
17 | > 10000 nM | 6 nM | – | CC(=O)Nc1cc(-c2sc(C3CCN(C)CC3)nc2-c2cccc(NS(=O)(=O)c3cc(F)ccc3F)c2F)ccn1 [cmpd. 23, N-{4-[4-(3-{[(2,5-difluorophenyl)sulfonyl]amino}-2-fluorophenyl)-2-(1-methylpiperidin-4-yl)-1,3-thiazol-5-yl]pyridin-2-yl}acetamide]
18 | > 10000 nM | 0.6 nM | – | CC(=O)Nc1cc(-c2sc(C3CCOCC3)nc2-c2cccc(NS(=O)(=O)c3cc(F)ccc3F)c2F)ccn1 [cmpd. 35, N-{4-[4-(3-{[(2,5-difluorophenyl)sulfonyl]amino}-2-fluorophenyl)-2-(tetrahydro-2H-pyran-4-yl)-1,3-thiazol-5-yl]pyridin-2-yl}acetamide]
19 | > 10000 nM | 27 nM | – | Nc1cc(-c2sc(C3CCN(C4CC4)CC3)nc2-c2cccc(NS(=O)(=O)c3cc(F)ccc3F)c2F)ccn1 [cmpd. 22, N-{3-[5-(2-aminopyridin-4-yl)-2-(1-cyclopropylpiperidin-4-yl)-1,3-thiazol-4-yl]-2-fluorophenyl}-2,5-difluorobenzenesulfonamide]
20 | > 10000 nM | 40 nM | – | CC(=O)Nc1cc(-c2sc(C3CCNCC3)nc2-c2cccc(NS(=O)(=O)c3cc(F)ccc3F)c2F)ccn1 [cmpd. 44, N-{4-[4-(3-{[(2,5-difluorophenyl)sulfonyl]amino}-2-fluorophenyl)-2-(piperidin-4-yl)-1,3-thiazol-5-yl]pyridin-2-yl}acetamide]
